{
  "source": "ChEMBL document CHEMBL4393697",
  "about": "“Lipophilic efficient phenylthiazoles with potent undecaprenyl pyrophosphatase inhibitory activity” (Eur J Med Chem, 2019)",
  "type_in_all_cases": "functional",
  "key": {"Staphylococcus aureus [1]": {"system": "Staphylococcus aureus", "experiment": "Antibacterial activity against vancomycin resistant Staphylococcus aureus VRS10 assessed as reduction in bacterial cell growth incubated for 18 to 20 hrs by broth microdilution method"}, "Staphylococcus aureus [2]": {"system": "Staphylococcus aureus", "experiment": "Antibacterial activity against methicillin-resistant Staphylococcus aureus USA400 assessed as reduction in CFU at 4 x MIC preincubated for 12 hrs in Tryptic soy broth followed by incubation for 18 to 20 hrs on TSA plate by time-kill assay"}, "Staphylococcus aureus [3]": {"system": "Staphylococcus aureus", "experiment": "Antibacterial activity against vancomycin resistant Staphylococcus aureus VRS12 assessed as reduction in bacterial cell growth incubated for 18 to 20 hrs by broth microdilution method"}, "Staphylococcus aureus [4]": {"system": "Staphylococcus aureus", "experiment": "Antibacterial activity against vancomycin resistant Staphylococcus aureus VRS11a assessed as reduction in bacterial cell growth incubated for 18 to 20 hrs by broth microdilution method"}, "Staphylococcus aureus [5]": {"system": "Staphylococcus aureus", "experiment": "Antibacterial activity against intracellular methicillin resistant Staphylococcus aureus USA400 infected in mouse J774 cells assessed as log10 reduction of viable bacterial cells incubated for 24 hrs followed by re-plating on tryptic soy agar plates at 37 degC for 18 to 22 hrs by broth microdilution assay"}, "Enterococcus faecalis [6]": {"system": "Enterococcus faecalis", "experiment": "Antibacterial activity against vancomycin resistant Enterococcus faecalis ATCC 51299 assessed as reduction in bacterial cell growth incubated for 18 to 20 hrs by broth microdilution method"}, "Enterococcus faecium [7]": {"system": "Enterococcus faecium", "experiment": "Antibacterial activity against vancomycin resistant Enterococcus faecium ATCC 700221 assessed as reduction in bacterial cell growth incubated for 18 to 20 hrs by broth microdilution method"}, "Listeria monocytogenes": {"system": "Listeria monocytogenes", "experiment": "Antibacterial activity against Listeria monocytogenes ATCC 19111 assessed as reduction in bacterial cell growth incubated for 18 to 20 hrs by broth microdilution method"}, "Streptococcus pneumoniae [8]": {"system": "Streptococcus pneumoniae", "experiment": "Antibacterial activity against Cephalosporin resistant Streptococcus pneumoniae ATCC 51916 assessed as reduction in bacterial cell growth incubated for 18 to 20 hrs by broth microdilution method"}, "Streptococcus pneumoniae [9]": {"system": "Streptococcus pneumoniae", "experiment": "Antibacterial activity against Methicillin resistant Streptococcus pneumoniae ATCC 700677 assessed as reduction in bacterial cell growth incubated for 18 to 20 hrs by broth microdilution method"}, "Staphylococcus aureus [10]": {"system": "Staphylococcus aureus", "experiment": "Bactericidal activity against Staphylococcus aureus ATCC 6538 assessed as reduction in bacterial cell growth incubated for 18 to 20 hrs followed by re-plating on tryptic soy agar plates at 37 degC for 18 hrs by broth microdilution assay"}, "Staphylococcus aureus [11]": {"system": "Staphylococcus aureus", "experiment": "Bactericidal activity against Staphylococcus aureus NRS107 assessed as reduction in bacterial cell growth incubated for 18 to 20 hrs followed by re-plating on tryptic soy agar plates at 37 degC for 18 hrs by broth microdilution assay"}, "Staphylococcus aureus [12]": {"system": "Staphylococcus aureus", "experiment": "Bactericidal activity against methicillin resistant Staphylococcus aureus NRS119 assessed as reduction in bacterial cell growth incubated for 18 to 20 hrs followed by re-plating on tryptic soy agar plates at 37 degC for 18 hrs by broth microdilution assay"}, "Staphylococcus aureus [13]": {"system": "Staphylococcus aureus", "experiment": "Bactericidal activity against methicillin-resistant Staphylococcus aureus USA300 assessed as reduction in bacterial cell growth incubated for 18 to 20 hrs followed by re-plating on tryptic soy agar plates at 37 degC for 18 hrs by broth microdilution assay"}, "Staphylococcus aureus [14]": {"system": "Staphylococcus aureus", "experiment": "Bactericidal activity against vancomycin resistant Staphylococcus aureus VRS10 assessed as reduction in bacterial cell growth incubated for 18 to 20 hrs followed by re-plating on tryptic soy agar plates at 37 degC for 18 hrs by broth microdilution assay"}, "Staphylococcus aureus [15]": {"system": "Staphylococcus aureus", "experiment": "Bactericidal activity against vancomycin resistant Staphylococcus aureus VRS11a assessed as reduction in bacterial cell growth incubated for 18 to 20 hrs followed by re-plating on tryptic soy agar plates at 37 degC for 18 hrs by broth microdilution assay"}, "Staphylococcus aureus [16]": {"system": "Staphylococcus aureus", "experiment": "Bactericidal activity against vancomycin resistant Staphylococcus aureus VRS12 assessed as reduction in bacterial cell growth incubated for 18 to 20 hrs followed by re-plating on tryptic soy agar plates at 37 degC for 18 hrs by broth microdilution assay"}, "Enterococcus faecalis [17]": {"system": "Enterococcus faecalis", "experiment": "Bactericidal activity against vancomycin resistant Enterococcus faecalis ATCC 51299 assessed as reduction in bacterial cell growth incubated for 18 to 20 hrs followed by re-plating on tryptic soy agar plates at 37 degC for 18 hrs by broth microdilution assay"}, "Enterococcus faecium [18]": {"system": "Enterococcus faecium", "experiment": "Bactericidal activity against vancomycin resistant Enterococcus faecium ATCC 700221 assessed as reduction in bacterial cell growth incubated for 18 to 20 hrs followed by re-plating on tryptic soy agar plates at 37 degC for 18 hrs by broth microdilution assay"}, "Streptococcus pneumoniae [19]": {"system": "Streptococcus pneumoniae", "experiment": "Bactericidal activity against Cephalosporin resistant Streptococcus pneumoniae ATCC 51916 assessed as reduction in bacterial cell growth incubated for 18 to 20 hrs followed by re-plating on tryptic soy agar plates at 37 degC for 18 hrs by broth microdilution assay"}},
  "note": "The source made the active and inactive calls. No cut-off for these calls is given here.",
  "data": [
    {"compound": "CN[C@H](CC(C)C)C(=O)N[C@H]1C(=O)N[C@@H](CC(N)=O)C(=O)N[C@H]2C(=O)N[C@H]3C(=O)N[C@H](C(=O)N[C@H](C(=O)O)c4cc(O)cc(O)c4-c4cc3ccc4O)[C@H](O)c3ccc(c(Cl)c3)Oc3cc2cc(c3O[C@@H]2O[C@H](CO)[C@@H](O)[C@H](O)[C@H]2O[C@H]2C[C@](C)(N)[C@H](O)[C@H](C)O2)Oc2ccc(cc2Cl)[C@H]1O", "note": "[VANCOMYCIN]", "values": [
      {"measurement": "MIC", "setting": "Staphylococcus aureus [1]", "value": "> 64", "unit": "µg/mL"},
      {"measurement": "inhibition", "setting": "Staphylococcus aureus [2]", "value": "Active"},
      {"measurement": "MIC", "setting": "Staphylococcus aureus [3]", "value": 64, "unit": "µg/mL"},
      {"measurement": "MIC", "setting": "Staphylococcus aureus [4]", "value": "> 64", "unit": "µg/mL"},
      {"measurement": "inhibition", "setting": "Staphylococcus aureus [5]", "value": "inactive"},
      {"measurement": "MIC", "setting": "Enterococcus faecalis [6]", "value": 32, "unit": "µg/mL"},
      {"measurement": "MIC", "setting": "Enterococcus faecium [7]", "value": "> 64", "unit": "µg/mL"},
      {"measurement": "MIC", "setting": "Listeria monocytogenes", "value": 1, "unit": "µg/mL"},
      {"measurement": "MIC", "setting": "Streptococcus pneumoniae [8]", "value": 1, "unit": "µg/mL"},
      {"measurement": "MIC", "setting": "Streptococcus pneumoniae [9]", "value": 2, "unit": "µg/mL"},
      {"measurement": "MBC", "setting": "Staphylococcus aureus [10]", "value": 1, "unit": "µg/mL"},
      {"measurement": "MBC", "setting": "Staphylococcus aureus [11]", "value": 2, "unit": "µg/mL"},
      {"measurement": "MBC", "setting": "Staphylococcus aureus [12]", "value": 1, "unit": "µg/mL"},
      {"measurement": "MBC", "setting": "Staphylococcus aureus [13]", "value": 4, "unit": "µg/mL"},
      {"measurement": "MBC", "setting": "Staphylococcus aureus [14]", "value": "> 64", "unit": "µg/mL"},
      {"measurement": "MBC", "setting": "Staphylococcus aureus [15]", "value": "> 64", "unit": "µg/mL"},
      {"measurement": "MBC", "setting": "Staphylococcus aureus [16]", "value": 64, "unit": "µg/mL"},
      {"measurement": "MBC", "setting": "Enterococcus faecalis [17]", "value": "> 64", "unit": "µg/mL"},
      {"measurement": "MBC", "setting": "Enterococcus faecium [18]", "value": "> 64", "unit": "µg/mL"},
      {"measurement": "MBC", "setting": "Streptococcus pneumoniae [19]", "value": 1, "unit": "µg/mL"}
    ]}
  ]
}
